From publication PMC11597202, “Novel Thiazole-Fused [4,5-g] or [5,4-g]Quinazolin-8-ones and Their Quinazoline Analogues: Synthesis and Biological Evaluation” (Pharmaceuticals, 2024)

Experiment: In vitro cytotoxic assay, Huh7-D12
Assay type: cell-based
Conditions: human, Huh7-D12 cells (liver cancer cell line)
Procedure: Skin normal fibroblastic cells were purchased from Lonza (Basel, Switzerland). […] All culture media were supplemented by 10% of FBS, 1% of penicillin–streptomycin and 2 mM glutamine.
Chemicals were solubilized in DMSO at a concentration of 10 mM (stock solution) and diluted in culture medium to the desired final concentrations. […] Cells were plated in 96-well plates (4000 cells/well). Twenty-four hours after seeding, the cells were exposed to chemicals. […] Image acquisition and analysis were performed using a Cellomics ArrayScan VTI/HCS Reader (ThermoScientific, Les Ulis, France). The survival percentages were calculated as the percentage of cell number after compound treatment over cell number after DMSO treatment. The relative IC50 values were calculated using the curve fitting XLfit 5.5.0.5 (idbs) integrated in Microsoft Excel as an add-on.
4.3.1. Cell culture. Skin normal fibroblastic cells are purchased from Lonza (Basel, Switzerland). Huh7- […]
from ATCC (American Type Culture Collection). […]
supplemented by 10% of FBS, 1% of penicillin-streptomycin and 2 mM glutamine.
4.3.2. Cytotoxic assay. Chemicals were solubilized in DMSO at a concentration of 10 mM (stock solution) and diluted in culture medium to the desired final concentrations. The dose effect cytotoxic assays (IC50 determination) were performed by increasing the concentrations of each chemical (final well […]
Cells were plated in 96-well plates
(4000 cells/well). Twenty-four hours after seeding, cells were exposed to chemicals. After 48h of treatment, cells were washed in PBS and fixed in cooled 90% ethanol/5% acetic acid for 20 min and the […]
Image acquisition and analysis were performed using a Cellomics ArrayScan VTI/HCS Reader (ThermoScientific). The survival percentages were calculated as the percentage of cell number after compound treatment over cell number after DMSO treatment. The relative IC50 were calculated using the curve fitting XLfit 5.5.0.5 (idbs) integrated in Microsoft Excel as an add-on. The 4 Parameter Logistic Model or Sigmoidal Dose-Response Model describing the sigmoid-shaped response pattern was used (fit = (A+[(B-A)/(1+[(C/x)^D])]) where fit is the response and X is the tested concentration of the compound. The lower asymptote is A (also referred to as the bottom of the curve or lower plateau or the min) and the upper asymptote is B (also referred to as the top of the curve or upper plateau or the max). The slope of the linear part of the curve is described by the factor D. The parameter C is the concentration corresponding to the response midway between A and B. C is called “relative IC50” because it refers to the maximum response obtained by a […]
The results are represented as the mean ± standard error (SE) calculated from at least three independent experiments.

SMILES	IC50 at 48 h
COC(=N)c1nc2cc3c(=O)n(Cc4ccccc4)cnc3cc2s1 [Compound 6a, Methyl 7-benzyl-8-oxo-7,8-dihydrothiazolo[4,5-g]quinazoline-2-carbimidate]	> 25 µM
COC(=N)c1nc2cc3ncn(Cc4ccccc4)c(=O)c3cc2s1 [Compound 6b, Methyl 7-benzyl-8-oxo-7,8-dihydrothiazolo[5,4-g]quinazoline-2-carbimidate]	1 µM
COC(=N)c1nc2c(ccc3c(=O)n(Cc4ccccc4)cnc32)s1 [Compound 6c, Methyl 7-benzyl-6-oxo-6,7-dihydrothiazolo[5,4-h]quinazoline-2-carbimidate]	10 µM
COC(=N)c1nc2ccc3c(=O)n(Cc4ccccc4)cnc3c2s1 [Compound 6d, Methyl 7-benzyl-6-oxo-6,7-dihydrothiazolo[4,5-h]quinazoline-2-carbimidate]	9 µM
COC(=N)c1nc2cc3c(Nc4ccc(OC)cc4F)ncnc3cc2s1 [Compound 15a, Methyl 8-[(2-fluoro-4-methoxyphenyl)amino]thiazolo[4,5-g]quinazoline-2-carbimidate]	8 µM
COC(=N)c1nc2ccc3ncn(Cc4ccccc4)c(=O)c3c2s1 [Compound I, methyl 8-benzyl-9-oxo-8,9-dihydrothiazolo[5,4-f]quinazoline-2-carbimidate, reference compound]	15 µM
COC(=N)c1nc2ccc3ncnc(Nc4ccc(OC)cc4F)c3c2s1 [Compound II, methyl 9-[(2-fluoro-4-methoxyphenyl)amino]thiazolo[5,4-f]quinazoline-2-carbimidate, reference compound]	5 µM
